Results on six compounds are retold here after patent US5789431A, “Naphthoquinone antitumor compound and method” (The University of North Carolina at Chapel Hill, priority 1996, dated 1998).

In one data set the test system is LOX1MVI. Nature of the data set: in vitro melanoma cell growth inhibition (NCI screen).
In the next data set the test system is MALME-3M. Described as above.
For the next data set, the system named is M19-MEL. Described as above.
In a further data set the test system is SK-MEL-5. The data set is described as above.
Another data set deals with UACC-257. The data set is described as above.
The subject of the next data set is UACC-62. The description is as above.
The test system of the next data set is HL-60(TB). Nature of the data set: in vitro leukemia cell growth inhibition (NCI screen).
In another data set the test system is K-562. The description is as above.
The next data set deals with MOLT-4. The data set is described as above.
In a further data set the test system is SR. The description is as above.
In a further data set the test system is SNB-75. Nature of the data set: in vitro CNS cancer cell growth inhibition (NCI screen).
A further data set concerns XF-498. The data set is described as above.
In a further data set the test system is HT 29. As to the kind of experiment: in vitro colon cancer cell growth inhibition (NCI screen).
For the next data set, the system named is ACHN. As to the kind of experiment: in vitro renal cancer cell growth inhibition (NCI screen).
In a further data set the test system is SN12C. The description is as above.
Another data set deals with UO-31. The description is as above.
In the next data set the test system is OVCAR-3. Nature of the data set: in vitro ovarian cancer cell growth inhibition (NCI screen).
The next data set concerns HOP-92. As to the kind of experiment: in vitro non-small cell lung cancer cell growth inhibition (NCI screen).
The next data set has as its system NCI-H23. Described as above.
Another data set has as its system NCI-H460. The data set is described as above.
In another data set the test system is NCI-H522. The description is as above.
The test system of another data set is human tumor cell lines. The data set is classed as cell-based.
The subject of another data set is M14. Nature of the data set: in vitro melanoma cell growth inhibition (NCI screen).
Another data set relates to SK-MEL-2. The description is as above.
The subject of the next data set is COLO-205. As to the kind of experiment: in vitro colon cancer cell growth inhibition (NCI screen).
The test system of another data set is HCT-15. Described as above.
Another data set has as its system KM 20L2. The description is as above.
The next data set deals with CCRF-CEM. Nature of the data set: in vitro leukemia cell growth inhibition (NCI screen).
For another data set, the system named is RPMI-8226. The description is as above.
The next data set relates to HCC-2998. Nature of the data set: in vitro colon cancer cell growth inhibition (NCI screen).
The subject of a further data set is IGROV1. As to the kind of experiment: in vitro ovarian cancer cell growth inhibition (NCI screen).
A further data set relates to OVCAR-4. Described as above. The settings on record: OVACR-4.
The next data set deals with MCF7/ADR-RES. Nature of the data set: in vitro breast cancer cell growth inhibition (NCI screen).
The next data set relates to MDA-MB-435. The description is as above.
Another data set concerns MDA-N. The description is as above.
In another data set the test system is T-47D. The description is as above.
Another data set deals with SK-OV-3. Nature of the data set: in vitro ovarian cancer cell growth inhibition (NCI screen).
The next data set relates to HCT-116. Nature of the data set: in vitro colon cancer cell growth inhibition (NCI screen).
In the next data set the test system is SW 620. Described as above.
Another data set has as its system RXF-393. As to the kind of experiment: in vitro renal cancer cell growth inhibition (NCI screen).
The test system of the next data set is MCF-7. Nature of the data set: in vitro breast cancer cell growth inhibition (NCI screen).
Another data set relates to OVCAR-8. As to the kind of experiment: in vitro ovarian cancer cell growth inhibition (NCI screen).
Another data set deals with PC-3. Nature of the data set: in vitro prostate cancer cell growth inhibition (NCI screen).

Consider `Cc1nc2c(n1C(C)(C)C)C(=O)c1ccccc1C2=O` [Compound 8], for which the “cytotoxicity log GI50” value in the data set on LOX1MVI is listed as -4.38 M; in the data set with MALME-3M, -4.35 M; with M19-MEL, -4.61 M; in the data set with SK-MEL-5, -4.41 M; in the data set with UACC-257 it was -4.37 M; in the data set with UACC-62, -4.35 M. Moreover, the “cytotoxicity log GI50” value with HL-60(TB) is reported as -4.34 M; with K-562, -4.30 M; with MOLT-4, -4.31 M; with SR, -4.35 M; in the data set on SNB-75, -4.50 M; with XF-498, -4.36 M. Further, the “cytotoxicity log GI50” value in the data set on HT 29 was -4.36 M; in the data set on ACHN it was -4.31 M; with SN12C, -4.30 M; in the data set with UO-31 it was -4.43 M; in the data set with OVCAR-3, -4.41 M; in the data set with HOP-92 it was -5.03 M. The “cytotoxicity log GI50” value with NCI-H23 is -4.42 M; with NCI-H460, -4.44 M; in the data set on NCI-H522, -4.36 M.

With `Cc1nc2c(n1CCN(C)C)C(=O)c1ccccc1C2=O` [Compound 15], the “cytotoxicity against tumor cells (in words)” value with human tumor cell lines (cancer cell line panel) is recorded as “comparable to those of compounds 6-14”. The “cytotoxicity log GI50” value in the data set with MALME-3M is -5.55 M; in the data set on M14, -4.93 M; in the data set on M19-MEL, -5.69 M; in the data set with SK-MEL-2 it was -4.91 M; in the data set on SK-MEL-5, -5.13 M; in the data set with UACC-62, -4.92 M. The “cytotoxicity log GI50” value is recorded as -5.28 M in the data set with HL-60(TB); -4.93 M in the data set on SR; -5.35 M in the data set with COLO-205; -4.89 M with HCT-15; -4.98 M with HT 29; -5.20 M with KM 20L2. In addition, the “cytotoxicity log GI50” value was -5.15 M with OVCAR-3, -4.92 M with NCI-H23, -5.01 M in the data set on NCI-H460 and -5.27 M in the data set on NCI-H522.

Consider `CCCc1nc2c(n1CC)C(=O)c1ccccc1C2=O` [Compound 24], for which the GI50 with human tumor cell lines (Homo sapiens, cancer cell panel, general / most cell lines, read-out: logGI50 values in the cancer cell line panel (converted)) is about 10 µM. Besides, the “cytotoxicity log GI50” value with MALME-3M is on record as -4.65 M; with SK-MEL-5, -4.53 M; in the data set on UACC-257, -4.74 M; in the data set on UACC-62, -4.59 M; in the data set with CCRF-CEM, -4.61 M; in the data set with K-562, -4.51 M. Moreover, the “cytotoxicity log GI50” value is reported as -4.77 M with MOLT-4; -4.50 M in the data set on RPMI-8226; -4.51 M with HCC-2998; -4.55 M with HCT-15; -4.73 M in the data set with HT 29; -4.57 M in the data set with IGROV1. The “cytotoxicity log GI50” value in the data set with OVCAR-3 is given as -4.49 M; in the data set on OVCAR-4, -4.49 M; in the data set on MCF7/ADR-RES it was -4.58 M; with MDA-MB-435, -4.76 M; in the data set with MDA-N it was -4.70 M; in the data set on T-47D it was -4.55 M. For the same compound, the “cytotoxicity log GI50” value in the data set on SK-OV-3 is on record as -4.66 M; in the data set on NCI-H522, -4.62 M.

Turning to `CC(=O)NC1=C(NCCO)C(=O)c2ccccc2C1=O` [Compound 40], the “cytotoxicity log GI50” value is listed as -4.89 M in the data set on MALME-3M; -5.01 M with M19-MEL; -4.53 M in the data set on SK-MEL-5; -4.68 M with HL-60(TB); -4.52 M in the data set with HCT-116; -4.62 M with KM 20L2. The “cytotoxicity log GI50” value is -4.72 M with OVCAR-3 and -4.61 M in the data set on NCI-H522.

Consider `CCNC1=C(NC(=O)c2ccc(F)cc2)C(=O)c2ccccc2C1=O` [Compound 48], for which the “cytotoxicity log GI50” value in the data set on MALME-3M is -4.72 M; in the data set with M14 it was -4.61 M; in the data set on SK-MEL-5, -4.46 M; with UACC-257 it was -4.80 M; in the data set on UACC-62, -4.82 M; in the data set with CCRF-CEM, -4.45 M. Besides, the “cytotoxicity log GI50” value was -4.52 M with MOLT-4; -4.58 M in the data set on COLO-205; -4.46 M with HCC-2998; -4.52 M with HCT-116; -4.51 M with HCT-15; -4.65 M in the data set with HT 29. The “cytotoxicity log GI50” value in the data set on SW 620 was -4.49 M; in the data set with RXF-393, -4.53 M; with IGROV1, -4.50 M; in the data set with OVCAR-3 it was -4.44 M; with MCF-7 it was -4.52 M; in the data set on MCF7/ADR-RES it was -4.56 M. Moreover, the “cytotoxicity log GI50” value with MDA-MB-435 is reported as -4.74 M; in the data set with MDA-N, -4.47 M; in the data set on OVCAR-8 it was -4.49 M; in the data set on SK-OV-3, -4.73 M; in the data set with PC-3, -4.76 M; in the data set on NCI-H23 it was -4.46 M. The “cytotoxicity log GI50” value in the data set with NCI-H522 is -4.68 M.

For `CCNC1=C(NC(=O)c2ccc(OC)cc2)C(=O)c2ccccc2C1=O` [Compound 49], the “cytotoxicity log GI50” value in the data set on MALME-3M is recorded as -4.67 M; with M14, -4.67 M; with SK-MEL-5 it was -4.46 M; in the data set with UACC-257, -4.71 M; with UACC-62, -4.40 M; in the data set with MOLT-4, -4.44 M. Also, the “cytotoxicity log GI50” value is reported as -4.43 M with COLO-205; -4.43 M with HCC-2998; -4.44 M in the data set with HCT-116; -4.63 M in the data set with HT 29; -4.36 M in the data set with SW 620; -4.55 M with RXF-393. Also, the “cytotoxicity log GI50” value in the data set on OVCAR-3 is -4.62 M; in the data set on OVCAR-4 it was -4.46 M; in the data set with MCF7/ADR-RES, -4.54 M; in the data set on MDA-MB-435, -4.77 M; in the data set with MDA-N, -4.43 M; in the data set with OVCAR-8 it was -4.61 M. Besides, the “cytotoxicity log GI50” value is listed as -4.48 M in the data set with PC-3, -4.36 M with NCI-H23 and -4.51 M in the data set with NCI-H522.
